Experimental data taken from patent US6887847B2, “Virus derived antimicrobial peptides” (University of Pittsburgh, priority 2001, dated 2005).
≈ marks a conversion by molar mass, not a printed value. Where two headings read alike, the source gives them in different places. Residues, ends and D or L forms follow the SMILES beside them.

Assays:
Pseudomonas aeruginosa = type: cell-based
Source text: (§1) The assays for growth inhibition of a microbial target can be used to derive a minimum bactericidal concentration (MBC) value for the peptide, i.e., the concentration of peptide required to kill 99.9% of the microbial sample being tested. This value is well known to those in the art as representative of the effectiveness of a particular antimicrobial agent (e.g., an antibiotic) against a particular organism or group of organisms. In assays to detect the MBC of a peptide, growth inhibition of a bacterial population also can be measured with reference to the number of colony forming units (cfu) after exposure to a peptide relative to a control experiment without a peptide.
(§2) Bacterial lysis assay. Bacterial lysis assays were conducted in a manner similar to that described previously (Lehrer, R. I., M. E. Selsted, D. Szklarek, and F. J. 1983. Infect. Immun. 42: 10-4, 1983; Miller, M. A., R. F. Garry, J. M. Jaynes, and R. C. Montelaro, AIDS Res Hum Retroviruses 7: 511-519, 1991). Bacterial suspensions were cultured in Luria-Bertani Broth to mid-log growth phase and washed by two cycles of centrifugation and suspension in 10 mM phosphate buffer. The Abs600 of the suspension was adjusted with 10 mM phosphate buffer such that, upon dilution, 5-10×10^5 cfu/mL would be treated in the assay. Bacteria were incubated for 1 h with two-fold dilutions of peptides (100 μM to 100 nM) in 96-well plates using 10 mM phosphate buffer, pH 7.2, as a diluent. Ten-fold dilutions of bacteria were performed to 1:1000; a 100 μl aliquot from each condition was spread on the surface of tryptic soy agar plates (Difco, Detroit, Mich.) which were incubated overnight. Colonies of surviving bacteria (cfu, colony-forming units) were counted and compared to untreated controls to determine the amount of peptide-induced killing under each condition. Log killing is defined as the log of the ratio of cfu present before and after treatment with peptide. The minimal bactericidal concentration, MBC, is the peptide concentration at which 99.9% (three log) killing is achieved (Pearson et al., Antimicrob. Agents Chemother. 18: 699-708, 1980).
(§3) A limitation of many host-derived antimicrobial peptides is their decreased activity at physiologic (150 mM) NaCl concentration. See Friedrich et al., Antimicrobial Agents and Chemotherapy 43:1542-1548. The peptides WLSA-5 (SEQ ID NO:3) and LL37 were tested against the two index strains at physiologic NaCl. […] The activity of eLLPs and LBUs of this invention were compared to an expanded list of clinical bacterial isolates. These are summarized in Table 2 by comparing their MBCs in phosphate buffer alone (low salt) and phosphate buffer containing 150 mM NaCl (physiologic conditions). Inspection of this table would lead one skilled in the art to conclude that the activity of eLLPs and LBUs compare favorably to the host derived antimicrobial peptides as it relates to the spectrum and potency of antimicrobial activity.

Staphylococcus aureus [1] = experiment: Bacterial lysis (broth dilution) assay, MBC; type: cell-based
Source text: as §1, §2, §3

[2] = test system: Methicillin Resistant S. aureus; type: cell-based, Staphylococcus aureus; details: 0 mM NaCl (phosphate buffer, low salt)
Source text: as §1
Bacterial lysis assay. Bacterial lysis assays were conducted in a manner similar to that described previously (Lehrer, R. I., M. E. Selsted, D. Szklarek, and F. J. 1983. Infect. Immun. 42: 10-4, 1983; Miller, M. A., R. F. Garry, J. M. Jaynes, and R. C. Montelaro, AIDS Res Hum Retroviruses 7: 511-519, 1991). Bacterial suspensions were cultured in Luria-Bertani Broth to mid-log growth phase and washed by two cycles of centrifugation and suspension in 10 mM phosphate buffer. […] Colonies of surviving bacteria (cfu, colony-forming units) were counted and compared to untreated controls to determine the amount of peptide-induced killing under each condition. […]

[3] = Rabbit joint model of septic arthritis; type: in vivo, New Zealand white rabbit; details: peptide administered alone, all animal experiments
Source text: We have extended these findings to a septic arthritis animal model. In this study joint sepsis was induced by inoculating one knee of a 2.5 Kg New Zealand white rabbit with 1×10^5 colony forming units of a clinical S. aureus isolate, a strain resistant to penicillin but sensitive to methicillin, cephalosporins, and clindamycin. Using this model, symptoms of septic arthritis (e.g., degradation of the synovium) were monitored and the ability of antimicrobial agents to limit the degeneration of the joint post-infection can be assessed. In this application the bacterial infection is allowed to establish for 1 h. At this point the joint was accessed and increasing concentrations of LSA-5 (SEQ ID NO:2) (0, 50, 100, and 200 μM) in phosphate buffer (PB) was administered intraarticularly. The concentration of bacteria associated with joint fluid was established at time 0 and 1 h post LSA-5 (SEQ ID NO:2) instillation by plating dilutions of the synovial fluid on LB agar.
This was compared with multiple injections of a standard 0.35% neomycin or a combination of neomycin and LSA-5 (SEQ ID NO:2). Administration of each of these formulations was performed intraarticularly at time 0,1, and 2 h.

[4] = target: Ca^2+-saturated calmodulin (Homo sapiens, UniProt P0DP23); details: host cell Ca^2+-saturated calmodulin; cited from earlier work
Staphylococcus aureus [5] = details: 1×10^5 colony-forming units; cited from earlier work
[6] = test system: diverse gram-negative and -positive bacterial isolates; details: cited from earlier work
[7] = 0 mM NaCl (phosphate buffer, low salt)

Structure (SMILES) | MBC (Pseudomonas aeruginosa; [7]) | MBC (Pseudomonas aeruginosa; 150 mM NaCl (physiologic)) | MBC (Staphylococcus aureus [1]; [7]) | MBC (Staphylococcus aureus [1]; 150 mM NaCl (physiologic)) | MBC [2] | adverse toxicity [3] | calmodulin binding affinity [4] | time to nearly sterilize suspension (Staphylococcus aureus [5]) | antibacterial activity compared with magainin-2 [6]
CC[C@H](C)[C@H](NC(=O)[C@H](C)NC(=O)[C@H](CCCNC(=N)N)NC(=O)[C@H](CS)NC(=O)[C@H](C)NC(=O)[C@H](CCCNC(=N)N)NC(=O)[C@H](CCC(N)=O)NC(=O)[C@@H](NC(=O)[C@@H](NC(=O)[C@H](CCCNC(=N)N)NC(=O)[C@@H](NC(=O)[C@@H](NC(=O)[C@@H](N)CCCNC(=N)N)C(C)C)[C@@H](C)CC)C(C)C)C(C)C)C(=O)N[C@@H](CCCNC(=N)N)C(=O)N[C@@H](Cc1c[nH]cn1)C(=O)N[C@H](C(=O)N[C@H](C(=O)N[C@@H](CCCNC(=N)N)C(=O)N[C@@H](CCCNC(=N)N)C(=O)N[C@H](C(=O)N[C@@H](CCCNC(=N)N)C(=O)N[C@@H](CCC(N)=O)C(=O)NCC(=O)N[C@@H](CC(C)C)C(=O)N[C@@H](CCCNC(=N)N)C(=O)N[C@@H](CCCNC(=N)N)C(=O)N[C@H](C(=O)N[C@@H](CC(C)C)C(=O)N[C@@H](CCCNC(=N)N)C(=O)N[C@H](C(=O)N[C@H](C(=O)O)C(C)C)C(C)C)[C@@H](C)CC)[C@@H](C)CC)C(C)C)[C@@H](C)CC [LSA-5] (H-RVIRVVQRACRAIRHIVRRIRQGLRRILRVV-OH) | 0.8 µM | 0.8 µM (≈ 3.06 µg/mL) | 1 µM | 1 µM (≈ 3.82 µg/mL) | 0.15 µM | no adverse toxicity was observed |  |  | 
CC[C@H](C)[C@H](NC(=O)[C@H](C)NC(=O)[C@H](CCCNC(=N)N)NC(=O)[C@H](CS)NC(=O)[C@H](C)NC(=O)CNC(=O)[C@H](CCC(N)=O)NC(=O)[C@@H](NC(=O)[C@@H](NC(=O)[C@H](CCC(=O)O)NC(=O)[C@@H](NC(=O)[C@@H](NC(=O)[C@@H](N)CCCNC(=N)N)C(C)C)[C@@H](C)CC)C(C)C)C(C)C)C(=O)N[C@@H](CCCNC(=N)N)C(=O)N[C@@H](Cc1c[nH]cn1)C(=O)N[C@H](C(=O)N1CCC[C@H]1C(=O)N[C@@H](CCCNC(=N)N)C(=O)N[C@@H](CCCNC(=N)N)C(=O)N[C@H](C(=O)N[C@@H](CCCNC(=N)N)C(=O)N[C@@H](CCC(N)=O)C(=O)NCC(=O)N[C@@H](CC(C)C)C(=O)N[C@@H](CCC(=O)O)C(=O)N[C@@H](CCCNC(=N)N)C(=O)N[C@H](C(=O)N[C@@H](CC(C)C)C(=O)O)[C@@H](C)CC)[C@@H](C)CC)[C@@H](C)CC [LLP1] (H-RVIEVVQGACRAIRHIPRRIRQGLERIL-OH; N-terminus and C-terminus assumed) |  |  |  |  |  |  | near nanomolar affinity | ≤ 60 s | equal to, or more potent than magainin-2
